In the supplement of paper PMC6045584:
± gives the standard deviation of the averaged measurements.

How the values were obtained:
ABT-737 = compound: CN(C)CC[C@H](CSc1ccccc1)Nc1ccc(S(=O)(=O)NC(=O)c2ccc(N3CCN(Cc4ccccc4-c4ccc(Cl)cc4)CC3)cc2)cc1[N+](=O)[O-] [ABT-737]; assay: surviving fraction relative to DMSO-only wells; higher = less growth inhibition; details: exposure time: 5 days
Procedure, shortened: (§1)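 Tumour cell lines were seeded in log phase at 250–500 cells per well into 384-well plates. Starting 24 hours later, inhibitors were present continuously for five days at 0.5, 1, 5, 10, 50, 100, 500 and 1000 nM. Surviving fraction, from CellTiter-Glo luminescence, is normalised to the median of DMSO-only wells. Three screens per line were required, with replicate Pearson r >0.7 and median Z' >0.3 for a line to be kept.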

FLUOROURACIL = compound: O=c1[nH]cc(F)c(=O)[nH]1 [FLUOROURACIL]; assay: as above; details: exposure time: 5 days
Procedure, shortened: as §1

Test System	surviving fraction (ABT-737; 0.5 nM)	surviving fraction (ABT-737; 1 nM)	surviving fraction (ABT-737; 5 nM)	surviving fraction (ABT-737; 10 nM)	surviving fraction (ABT-737; 50 nM)	surviving fraction (ABT-737; 100 nM)	surviving fraction (ABT-737; 500 nM)	surviving fraction (ABT-737; 1000 nM)	surviving fraction (FLUOROURACIL; 0.5 nM)	surviving fraction (FLUOROURACIL; 1 nM)	surviving fraction (FLUOROURACIL; 5 nM)	surviving fraction (FLUOROURACIL; 10 nM)	surviving fraction (FLUOROURACIL; 50 nM)	surviving fraction (FLUOROURACIL; 100 nM)	surviving fraction (FLUOROURACIL; 500 nM)	surviving fraction (FLUOROURACIL; 1000 nM)
RDES SOFT TISSUE	1.26 ± 0.093	1.17 ± 0.053	1.13 ± 0.074	0.98 ± 0.036	0.765 ± 0.083	0.576 ± 0.034	0.405 ± 0.037	0.385 ± 0.058	1.09 ± 0.053	0.968 ± 0.032	1.06 ± 0.047	0.912 ± 0.048	0.788 ± 0.19	0.632 ± 0.01	1.3 ± 0.11	1.51 ± 0.22
S68 BREAST	1.25 ± 0.083	1.04 ± 0.045	1.04 ± 0.28	1.15 ± 0.047	1.26 ± 0.41	1.14 ± 0.27	0.848 ± 0.25	0.822 ± 0.14	1.06 ± 0.15	1.14 ± 0.31	1.06 ± 0.29	1.23 ± 0.21	0.87 ± 0.13	0.749 ± 0.034	0.656 ± 0.16	0.465 ± 0.061
SAOS2 BONE	1.18 ± 0.037	1.18 ± 0.056	1.21 ± 0.098	1.19 ± 0.082	1.27 ± 0.061	1.13 ± 0.059	1.14 ± 0.12	1.08 ± 0.018	1.04 ± 0.073	1.05 ± 0.037	1.11 ± 0.046	1.09 ± 0.02	0.826 ± 0.096	0.8 ± 0.17	0.758 ± 0.11	0.598 ± 0.2
SCC003 HEADNECK	1.11 ± 0.067	1.17 ± 0.03	1.16 ± 0.032	1.09 ± 0.021	1.15 ± 0.096	1.16 ± 0.1	1.19 ± 0.049	1.09 ± 0.069	1.02 ± 0.082	1.05 ± 0.042	1.03 ± 0.024	0.965 ± 0.044	1.02 ± 0.12	0.881 ± 0.036	0.6943 ± 0.005	0.87 ± 0.13
SCC36 HEADNECK	1.08 ± 0.18	1.03 ± 0.054	1.15 ± 0.028	1.13 ± 0.056	1.14 ± 0.14	1.12 ± 0.061	0.897 ± 0.035	0.924 ± 0.11	0.92 ± 0.093	0.872 ± 0.052	1.06 ± 0.13	1.05 ± 0.031	0.739 ± 0.095	0.775 ± 0.029	0.624 ± 0.076	0.529 ± 0.047
SCC47 HEADNECK	1.14 ± 0.033	1.13 ± 0.13	1.23 ± 0.09	1.25 ± 0.05	1.24 ± 0.087	1.2 ± 0.055	1.1 ± 0.053	1.14 ± 0.12	1.12 ± 0.088	1.14 ± 0.026	1.22 ± 0.15	1.1 ± 0.043	1.02 ± 0.048	0.945 ± 0.051	0.854 ± 0.047	0.956 ± 0.057
SCC90 HEADNECK	1.05 ± 0.077	1.05 ± 0.11	1.14 ± 0.12	1.14 ± 0.073	1.09 ± 0.046	1.11 ± 0.097	0.949 ± 0.05	0.853 ± 0.087	0.968 ± 0.033	0.982 ± 0.096	1 ± 0.039	1.012 ± 0.009	0.928 ± 0.087	0.86 ± 0.1	0.908 ± 0.064	0.95 ± 0.08
SG27 HEADNECK	1.26 ± 0.26	1.12 ± 0.12	1.19 ± 0.029	1.16 ± 0.079	1.15 ± 0.11	1.08 ± 0.13	0.88 ± 0.11	0.797 ± 0.059	1.07 ± 0.029	1.08 ± 0.13	0.991 ± 0.016	1.08 ± 0.053	1.08 ± 0.087	1 ± 0.13	1.137 ± 0.0093	1.01 ± 0.043
SG28 HEADNECK	1.25 ± 0.068	1.17 ± 0.064	1.02 ± 0.07	1.081 ± 0.0014	1.036 ± 0.0064	1.09 ± 0.021	1.13 ± 0.14	1.04 ± 0.016	1.04 ± 0.056	1.08 ± 0.056	0.944 ± 0.078	1.06 ± 0.036	0.756 ± 0.013	0.756 ± 0.12	0.781 ± 0.059	0.693 ± 0.068
SG31 HEADNECK	1.2 ± 0.19	1.51 ± 0.051	1.08 ± 0.21	1.04 ± 0.025	1.03 ± 0.18	1.2 ± 0.27	1.27 ± 0.25	1.12 ± 0.11	1.09 ± 0.14	1.25 ± 0.32	1.05 ± 0.085	0.973 ± 0.11	0.893 ± 0.048	0.981 ± 0.16	0.903 ± 0.059	0.876 ± 0.054
SG32 HEADNECK	1.02 ± 0.13	0.981 ± 0.024	1.04 ± 0.11	1.17 ± 0.15	0.963 ± 0.025	1.23 ± 0.51	1.07 ± 0.0099	0.954 ± 0.045	1.28 ± 0.12	0.974 ± 0.046	1.21 ± 0.34	0.932 ± 0.029	0.864 ± 0.056	0.716 ± 0.098	0.8 ± 0.095	0.442 ± 0.096
SG43 HEADNECK	0.947 ± 0.12	1.06 ± 0.25	0.889 ± 0.076	0.875 ± 0.057	0.769 ± 0.14	0.801 ± 0.069	0.656 ± 0.24	0.752 ± 0.34	1.07 ± 0.14	0.991 ± 0.21	0.979 ± 0.25	1.06 ± 0.3	1.1 ± 0.22	0.905 ± 0.073	0.977 ± 0.088	0.879 ± 0.054
SIHA CERVIX	1.02 ± 0.017	1.1 ± 0.052	1.12 ± 0.033	1.08 ± 0.14	1.14 ± 0.056	1.2 ± 0.087	1.19 ± 0.056	1.14 ± 0.043	1.01 ± 0.043	0.989 ± 0.052	1.06 ± 0.011	1.08 ± 0.066	0.999 ± 0.051	0.957 ± 0.073	0.915 ± 0.13	1.02 ± 0.097
SJSA1 BONE	1.59 ± 0.063	1.68 ± 0.045	1.63 ± 0.06	1.72 ± 0.049	1.66 ± 0.078	1.81 ± 0.12	1.74 ± 0.045	1.81 ± 0.14	1.19 ± 0.1	1.6 ± 0.092	1.59 ± 0.11	1.52 ± 0.2	0.135 ± 0.008	0.823 ± 0.018	1.44 ± 0.026	0.116 ± 0.001
SKBR3 BREAST	1.04 ± 0.035	1.03 ± 0.07	0.988 ± 0.13	1.19 ± 0.13	0.976 ± 0.071	1.15 ± 0.09	1.01 ± 0.14	1.13 ± 0.13	0.988 ± 0.088	0.894 ± 0.085	1.03 ± 0.074	0.986 ± 0.015	0.792 ± 0.059	0.741 ± 0.11	0.901 ± 0.11	0.787 ± 0.018
SNU475 LIVER	1.07 ± 0.017	1 ± 0.018	1.08 ± 0.083	1.05 ± 0.064	1.02 ± 0.039	1 ± 0.12	1.01 ± 0.061	0.972 ± 0.047	1 ± 0.058	0.982 ± 0.018	0.99 ± 0.046	0.9607 ± 0.0047	0.886 ± 0.021	0.892 ± 0.025	0.826 ± 0.081	0.741 ± 0.066
SUM44 BREAST	1.28 ± 0.43	1.31 ± 0.53	1.32 ± 0.44	1.3 ± 0.53	1.28 ± 0.48	1.25 ± 0.48	1.2 ± 0.42	1.1 ± 0.34	1.03 ± 0.23	0.958 ± 0.17	1.02 ± 0.16	0.956 ± 0.12	1.05 ± 0.12	0.788 ± 0.041	0.982 ± 0.05	0.726 ± 0.07
SUM149 BREAST	1.02 ± 0.036	1.07 ± 0.023	1.1 ± 0.061	1.08 ± 0.051	0.952 ± 0.058	1.07 ± 0.075	0.97 ± 0.049	0.961 ± 0.056	0.934 ± 0.029	0.969 ± 0.064	0.908 ± 0.028	0.909 ± 0.038	0.872 ± 0.071	0.902 ± 0.063	0.736 ± 0.069	0.597 ± 0.057
SUM149.B1*.S BREAST	1.13 ± 0.027	1.1 ± 0.072	1.16 ± 0.021	1.12 ± 0.034	1.12 ± 0.057	1.11 ± 0.069	1.1 ± 0.024	1.16 ± 0.055	1.1 ± 0.044	1.06 ± 0.043	1.12 ± 0.028	1.04 ± 0.04	1.04 ± 0.064	0.962 ± 0.034	0.909 ± 0.03	0.812 ± 0.021
SUM159 BREAST	1.1 ± 0.018	1.1 ± 0.028	1.12 ± 0.027	1.09 ± 0.026	1.095 ± 0.006	1.09 ± 0.021	1.11 ± 0.018	1.08 ± 0.014	1.1 ± 0.024	1.07 ± 0.023	1.08 ± 0.027	1.06 ± 0.026	1.073 ± 0.0051	1.01 ± 0.012	1.03 ± 0.014	0.915 ± 0.01
